Literature values as cited in patent publication US20210283075A1, “METHODS OF TREATING ATTENTION DEFICIT HYPERACTIVITY DISORDER” (Ovid Therapeutics, Inc., priority 2018, published 2021).

Experiments:
[1] = compared to placebo
sigma-1 receptor = sigma-1 receptor (Homo sapiens, UniProt Q99720)
[2] = test system: brain-derived neurotrophic factor (BDNF); conditions: hypothalamus
dopamine D3 = dopamine D3 (Homo sapiens, UniProt P35462)
5-HT2C = molecular target: T1, 5-HT2C (Homo sapiens, UniProt P28335)
T1 sequence (P28335 33-458): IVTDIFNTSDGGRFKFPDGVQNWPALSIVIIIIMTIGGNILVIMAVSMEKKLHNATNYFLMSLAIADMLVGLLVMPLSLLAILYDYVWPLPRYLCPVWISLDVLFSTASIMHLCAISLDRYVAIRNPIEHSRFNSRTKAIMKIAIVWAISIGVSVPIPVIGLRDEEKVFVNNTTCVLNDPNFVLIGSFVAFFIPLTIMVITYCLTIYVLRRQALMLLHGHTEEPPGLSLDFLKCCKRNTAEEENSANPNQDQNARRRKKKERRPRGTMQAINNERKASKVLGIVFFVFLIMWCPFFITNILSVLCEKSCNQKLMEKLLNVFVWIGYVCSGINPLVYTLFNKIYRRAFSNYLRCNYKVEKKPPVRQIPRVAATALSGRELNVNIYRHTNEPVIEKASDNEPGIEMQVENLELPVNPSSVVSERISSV

[3] = compared to lorazepam

Chain of sigma-1 receptor (Q99720 whole entry, species assumed): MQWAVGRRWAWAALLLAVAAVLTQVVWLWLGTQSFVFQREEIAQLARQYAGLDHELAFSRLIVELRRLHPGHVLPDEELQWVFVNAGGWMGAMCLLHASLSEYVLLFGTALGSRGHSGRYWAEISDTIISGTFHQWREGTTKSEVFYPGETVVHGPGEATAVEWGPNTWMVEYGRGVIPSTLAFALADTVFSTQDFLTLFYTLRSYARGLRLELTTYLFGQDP
Chain of dopamine D3 (P35462 whole entry): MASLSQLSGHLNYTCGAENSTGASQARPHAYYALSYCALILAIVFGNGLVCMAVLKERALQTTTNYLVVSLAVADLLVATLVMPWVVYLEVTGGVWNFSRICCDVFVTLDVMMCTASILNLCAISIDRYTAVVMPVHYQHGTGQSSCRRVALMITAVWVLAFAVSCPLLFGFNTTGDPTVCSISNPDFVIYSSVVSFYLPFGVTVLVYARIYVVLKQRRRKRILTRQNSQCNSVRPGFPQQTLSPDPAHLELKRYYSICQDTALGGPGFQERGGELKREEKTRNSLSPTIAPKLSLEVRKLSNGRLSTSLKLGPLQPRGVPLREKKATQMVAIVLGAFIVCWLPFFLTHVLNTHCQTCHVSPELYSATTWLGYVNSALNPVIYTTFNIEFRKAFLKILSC

activity at sigma-1 receptor (sigma-1 receptor): sigma-1 receptor agonist | activity at dopamine D3 (dopamine D3): dopamine D3 agonist | activity at 5-HT2C (5-HT2C): 5-HT2C antagonist
Structure (SMILES): CCCCSc1ccc(C(SCCN(C)C)c2ccccc2)cc1 (stereo not shown) [Captodiamine, 2-[(4-butylsulfanylphenyl)-phenyl-methyl]sulfanyl-N,N-dimethylethanamine]
severity of benzodiazepine withdrawal symptoms [1]: lower severity of benzodiazepine withdrawal symptoms | BDNF protein levels [2]: increase | concentration and dexterity when driving [3]: improved the concentration and dexterity | tendency to drowsiness ([3]; when driving): without inducing a tendency to drowsiness
